Consider 8 compounds from PubChem BioAssay (NCI).

Some test systems named below: SW-620 colon; KM12 colon; HOP-92 NSCLC; OVCAR-4 ovarian; COLO 205 colon; CAKI-1 renal; RXF 393 renal; OVCAR-5 ovarian; M14 melanoma; LOX IMVI melanoma; SNB-19 CNS; A549 NSCLC; TK-10 renal; KM20L2 colon; MOLT-4 leukemia; SK-MEL-2 melanoma; OVCAR-3 ovarian; HCT-116 colon; DU-145 prostate; PC-3 prostate.
Holding throughout (test): inhibition of tumour cell growth, NCI panel, 48 h

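The compound was tested at five concentrations on cells cultured in 96-well plates, with a 48-hour exposure period. TGI is the concentration that stops growth completely.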

As to `COc1ccc(C2CCC(Cl)(OC)CC2C=O)cc1` (stereo not drawn), the TGI in the test with SW-620 colon, in the test on KM12 colon, with HOP-92 NSCLC, with OVCAR-4 ovarian, with COLO 205 colon and in the test with CAKI-1 renal was greater than 100 µM in each case. In addition, the TGI with RXF 393 renal is 43.9 µM; in the test on OVCAR-5 ovarian, greater than 100 µM; in the test with M14 melanoma it was greater than 100 µM; with LOX IMVI melanoma, 43.7 µM; in the test with SNB-19 CNS, greater than 100 µM; with A549 NSCLC, greater than 100 µM. Also, the TGI in the test on TK-10 renal, in the test with KM20L2 colon, with MOLT-4 leukemia, in the test with SK-MEL-2 melanoma, in the test with OVCAR-3 ovarian and in the test with HCT-116 colon was greater than 100 µM throughout.

For `Cc1nccc2c1cnc1ccnn12`, the TGI in the test on SW-620 colon, in the test on KM12 colon, in the test on HOP-92 NSCLC, in the test with OVCAR-4 ovarian, in the test with COLO 205 colon and in the test on CAKI-1 renal was greater than 100 µM in each case. For the same compound, the TGI in the test on RXF 393 renal, with OVCAR-5 ovarian, in the test on M14 melanoma, with LOX IMVI melanoma, in the test with SNB-19 CNS and in the test with A549 NSCLC was greater than 100 µM in each case. Also, the TGI with TK-10 renal, in the test with KM20L2 colon, with MOLT-4 leukemia, in the test with SK-MEL-2 melanoma, with OVCAR-3 ovarian and in the test with HCT-116 colon was greater than 100 µM in each case.

Regarding `C/C(=N\NS(=O)(=O)c1ccc(C)cc1)C(CN(C)C)C(c1ccccc1)c1c(O)c2ccccc2oc1=O` (stereo not drawn), the TGI in the test on SW-620 colon, in the test on DU-145 prostate, in the test on KM12 colon, in the test on HOP-92 NSCLC, with OVCAR-4 ovarian and in the test on COLO 205 colon was greater than 100 µM each time. The TGI in the test with CAKI-1 renal, in the test on RXF 393 renal, with OVCAR-5 ovarian, in the test on M14 melanoma, in the test with LOX IMVI melanoma and in the test with SNB-19 CNS was greater than 100 µM in each case. The TGI with A549 NSCLC, in the test with TK-10 renal, with PC-3 prostate, with KM20L2 colon, with MOLT-4 leukemia and in the test with SK-MEL-2 melanoma was greater than 100 µM each time. Moreover, the TGI in the test with OVCAR-3 ovarian and with HCT-116 colon was greater than 100 µM each time.

`NC(=O)c1csc(CCCCCCc2nc(C(N)=O)cs2)n1`: the TGI in the test with SW-620 colon is greater than 60.7 µM; with KM12 colon it was greater than 100 µM; with HOP-92 NSCLC it was greater than 100 µM; with OVCAR-4 ovarian it was greater than 100 µM; in the test on COLO 205 colon, greater than 100 µM; in the test with CAKI-1 renal it was greater than 100 µM. Also, the TGI with RXF 393 renal, in the test with OVCAR-5 ovarian, in the test on M14 melanoma, in the test with LOX IMVI melanoma, with SNB-19 CNS and in the test on A549 NSCLC was greater than 100 µM in each case. Moreover, the TGI in the test on TK-10 renal, in the test with KM20L2 colon, in the test on MOLT-4 leukemia, in the test with SK-MEL-2 melanoma, in the test with OVCAR-3 ovarian and in the test with HCT-116 colon was greater than 100 µM each time.

`CC(NC(=O)/C(C#N)=C/c1ccc2[nH]ccc2c1)c1ccccc1` (stereo not drawn): the TGI worked out at 33 µM with SW-620 colon; 39.8 µM with DU-145 prostate; 32.2 µM in the test with KM12 colon; 33.5 µM in the test on HOP-92 NSCLC; 49.5 µM in the test on OVCAR-4 ovarian; 30.7 µM with COLO 205 colon. Further, the TGI with CAKI-1 renal worked out at 66 µM; with RXF 393 renal, 34.5 µM; in the test with OVCAR-5 ovarian it was 37.3 µM; with M14 melanoma, 37.2 µM; with LOX IMVI melanoma, 31.8 µM; in the test on SNB-19 CNS, 45.1 µM. Besides, the TGI came to 55.4 µM with A549 NSCLC; 50.1 µM with TK-10 renal; 39.3 µM in the test on PC-3 prostate; 33.2 µM with KM20L2 colon; 52.3 µM in the test with MOLT-4 leukemia; 39.9 µM in the test with SK-MEL-2 melanoma. Also, the figures for the TGI in the test with OVCAR-3 ovarian and with HCT-116 colon were 58 µM and 28.1 µM, respectively.

With `CN(C)CCCSc1c2ccccc2nc2cc(NCC(=O)Nc3ccccc3-c3ccccc3NC(=O)CNc3ccc4c(SCCCN(C)C)c5ccccc5nc4c3)ccc12`, the TGI with SW-620 colon, in the test with KM12 colon, in the test with HOP-92 NSCLC, in the test with OVCAR-4 ovarian, with COLO 205 colon and in the test on CAKI-1 renal was greater than 100 µM throughout. Moreover, the TGI in the test on RXF 393 renal, in the test with OVCAR-5 ovarian, in the test with M14 melanoma, in the test with LOX IMVI melanoma, in the test with SNB-19 CNS and in the test with A549 NSCLC was greater than 100 µM in each case. The TGI in the test with TK-10 renal, in the test with KM20L2 colon, in the test on MOLT-4 leukemia, in the test on SK-MEL-2 melanoma, in the test with OVCAR-3 ovarian and with HCT-116 colon was greater than 100 µM each time.

For `COC(=O)[C@H]1C=C[C@@H](C)n2c(=O)c3ccccc3c(=O)n21`, the TGI in the test on SW-620 colon, in the test with KM12 colon, with HOP-92 NSCLC, in the test with OVCAR-4 ovarian, in the test on COLO 205 colon and in the test with CAKI-1 renal was greater than 100 µM throughout. For the same compound, the TGI in the test on RXF 393 renal, in the test with OVCAR-5 ovarian, in the test with M14 melanoma, in the test with LOX IMVI melanoma, in the test on SNB-19 CNS and with A549 NSCLC was greater than 100 µM each time. The TGI with TK-10 renal, in the test on KM20L2 colon, in the test on MOLT-4 leukemia, with SK-MEL-2 melanoma, in the test on OVCAR-3 ovarian and in the test with HCT-116 colon was greater than 100 µM in each case.

`COC1=CC(C2c3cc4c(cc3[C@@H](Nc3ccc([N+](=O)[O-])cc3)C3COC(=O)[C@H]23)OCO4)=CC(=O)C1=O` (stereo partly drawn): the TGI with SW-620 colon is greater than 66.4 µM; in the test on KM12 colon it was 26.4 µM; in the test with HOP-92 NSCLC, greater than 53 µM; with OVCAR-4 ovarian, greater than 100 µM; with COLO 205 colon, 73.2 µM; with CAKI-1 renal it was 25.6 µM. Further, the TGI with RXF 393 renal was 86.8 µM; in the test on OVCAR-5 ovarian, 41 µM; with M14 melanoma, greater than 37.7 µM; in the test on LOX IMVI melanoma it was 13.2 µM; with SNB-19 CNS, greater than 86.5 µM; in the test with A549 NSCLC it was 10.6 µM. Further, the TGI with TK-10 renal is 43 µM; in the test with KM20L2 colon, greater than 62.6 µM; in the test on MOLT-4 leukemia it was 10.5 µM; in the test on SK-MEL-2 melanoma it was 92 µM; in the test on OVCAR-3 ovarian, 54.9 µM; in the test on HCT-116 colon it was 27.5 µM.
